Reference: US4988517A, “Method and composition for inhibiting colon carcinogenesis” (American Health Foundation, priority 1988, dated 1991)

Legend:
[1] = Body weights of male F344 rats fed the experimental diets; type: in vivo; details: for Body wt, Initial (Wk 0) / Body wt, wk 4 / Body wt, wk 8 / Body wt, wk 16 / Body wt, wk 22 / Body wt, wk 30 / Body wt, wk 37 (at termination): 25 ppm in diet, Mean ± SD
Text: (§1) Experimental Procedure. Male F344 rats received at weaning were quarantined for 10 days and given access to AIN-76A semipurified diet (control diet). They were then be randomly allocated by weight to one of three dietary groups (control diet and 25 ppm BSC and 25 ppm benzylthiocyanate ("BTC") diets). […] Therefore one of our goals was to compare BSC with its sulfur analog BTC. Each dietary group was divided into AOM-treated (27 animals per subgroup) and vehicle-treated (12 animals per subgroup) subgroups and housed in plastic cages with filter tops in the animal holding room under controlled environmental conditions.
(§2) Beginning at 5 wk of age, groups of rats fed the control diet were transferred to diets containing 25 ppm BSC or 25 ppm BTC. At 7 wk of age, the animals in each group, except the vehicle-treated controls, received two weekly s.c. injections of AOM at a dose level of 15 mg/kg body weight/wk. Vehicle controls were treated with an equal volume of normal saline. One wk after AOM or saline treatment, animals receiving the BSC and BTC diets were transferred to the control diets and continued on this diet until the termination of the experiment. The 1-wk delay before transferring to control diet was to ensure complete metabolism and excretion of the carcinogen. The animals receiving the control diet continued on the same diet. The experiment was terminated 34 wk after the last AOM injection.
(§3) Body weights were recorded weekly until the animals reach 16 wk of age and then every 4 wk. Six vehicle-treated animals randomly chosen from each dietary group while they were consuming experimental and control diets were used for tissue and blood plasma glutathione peroxidase analysis.

[2] = system: azoxymethane-induced colon tumors; test: AOM-induced colon tumor incidence and multiplicity (initiation phase feeding); type: in vivo, male F344 rats
Text: as §1, §2
(§4) Both AOM-and vehicle-treated animals were sacrificed by CO2 euthanasia. Following laparotomy, the entire stomach, small intestine, and large intestine were resected and opened longitudinally, and the contents flushed with normal saline. The location, number, and size of the colon and small intestinal tumors were noted grossly under the dissection microscope. All other organs, including liver and kidneys, were also examined grossly for tumors. Tissues were fixed in 10% buffered formalin, embedded in paraffin blocks, and processed by routine histological methods with the use of eosin and hematoxylin stains.
(§5) Statistical Analysis. The data on tumor incidence were analyzed statistically by the x^2 method and Fischer's exact probability test, and tumor multiplicity was analyzed by Student's t test. Biochemical results were analyzed by Student's t test.
(§6) Using the above-identified procedures, a study was made of the effect of feeding benzylselenocyanate and its sulfur analogue, benzylthiocyanate, two (2) weeks before, during and until one (1) week after carcinogen administration (initiation phase) on intestinal carcinogenesis induced by azoxymethane (CAS: 25843-45-2) in male F344 rats.

[3] = system: azoxymethane-induced small intestinal tumors; test: AOM-induced small intestinal tumor incidence and multiplicity; type: in vivo, male F344 rats
Text: as §1, §2, §4, §5, §6

[4] = system: azoxymethane-induced ear duct tumors; test: AOM-induced ear duct tumor incidence; type: in vivo, male F344 rats; details: 25 ppm in diet
Text: as §1, §2
as §4, with “Tissues were fixed in 10% buffered formalin, embedded in paraffin blocks, and processed by routine histological methods with the use of eosin and hematoxylin stains.” left out
as §5

[5] = system: azoxymethane-induced metastasis; test: AOM-induced metastasis; type: in vivo, male F344 rats
Text: as §1, §2, §4

[6] = system: selenium-dependent glutathione peroxidase; test: Selenium-dependent glutathione peroxidase activity in tissues of rats fed the diets; type: in vivo, male F344 rats
Experimental: as §3
Biochemical Determination. For the determination of tissue and blood plasma glutathione peroxidase activity, 6 vehicle-treated animals from each dietary group, while the animals were on experimental and control diets, were used. Before sacrificing the animals, blood was obtained under ether anesthesia by cardiac puncture with a syringe. They were then decapitated,and liver, kidneys, small intestine, and colon were rapidly removed. The liver was perfused with ice-cold normal saline. The small intestine and colon were slit open longitudinally and freed from all the contents, and the mucosa was scraped with a microscope glass slide. The liver and kidneys were trimmed free of connective tissue, minced with scissors, and homogenized for 10 s in 3 volumes of buffer, pH 7.3 (0.25 sucrose-10 mM EDTA-50 mM potassium phosphate) using a Brinkman Polytron at low speed. The colonic and small intestinal mucosal scrapings were immediately placed into 3 volumes of the same buffer and homogenized similarly. The homogenates were centrifuged in a Sorvall RC-2B centrifuge at 10,000×g, 4° C., for 20 min. The supernatant was centrifuged in a Beckman Ultracentrifuge at 100,000×g, 4° C., for 1 h. The resulting cytosol fraction was used for determination of glutathione peroxidase activity and protein.
Glutathione peroxidase activity was determined spectrophotometrically according to a modification of the enzyme-coupled assay procedure of Paglia and Valentine. The reaction mixture consisted of 50 mM potassium phosphate buffer (pH 7.0), 1 mM EDTA, 0.2 mM NADPH, 1 enzyme unit/ml oxidized glutathione-reductase, 1 mM glutathione, and 1.5 mM cumene hydroperoxide in a total volume of 1 ml. The cytosol was added to the above mixture and allowed to incubate 5 min. at room temperature. Total glutathione peroxide was measured with cumene hydroperoxide as a substrate. Selenium-dependent glutathione peroxide was measured with tert-butyl hydroperoxide. The reaction was started with the addition of substrate solution. Absorbance was measured at 340 nm, and activity was measured from the slope of the lines as mol NADPH oxidized/min/mg protein. Blank reactions without cytosol were run simultaneously. Protein concentration in the cytosol fraction was measured by the method of Lowry et al. with bovine serum albumin as standard.
as §5

[7] = system: non-selenium-dependent glutathione peroxidase; test: Non-selenium-dependent glutathione peroxidase activity in tissues of rats fed the diets; type: in vivo, male F344 rats; details: among the dietary groups
Experimental: as §3
Biochemical Determination. For the determination of tissue and blood plasma glutathione peroxidase activity, 6 vehicle-treated animals from each dietary group, while the animals were on experimental and control diets, were used. Before sacrificing the animals, blood was obtained under ether anesthesia by cardiac puncture with a syringe. They were then decapitated,and liver, kidneys, small intestine, and colon were rapidly removed. The liver was perfused with ice-cold normal saline. […]
Glutathione peroxidase activity was determined spectrophotometrically according to a modification of the enzyme-coupled assay procedure of Paglia and Valentine. […] Total glutathione peroxide was measured with cumene hydroperoxide as a substrate. Selenium-dependent glutathione peroxide was measured with tert-butyl hydroperoxide. […] Absorbance was measured at 340 nm, and activity was measured from the slope of the lines as mol NADPH oxidized/min/mg protein. […] Protein concentration in the cytosol fraction was measured by the method of Lowry et al. with bovine serum albumin as standard.

[8] = General toxicity observation in rats fed the diets; type: in vivo, male F344 rats; details: 25 ppm in diet
Text: as §1, §2, §3

[9] = system: carcinogenesis induced by chemicals; details: experimental animals; cited from earlier work
[10] = cited from earlier work
[11] = 25 ppm in diet 2 wk before to 1 wk after AOM
[12] = 25 ppm in diet, 27 (BSC) or 26 (BTC) animals/group
[13] = 25 ppm in diet 5 wk, Mean ± SE (n = 6)

With `N#CSCc1ccccc1` [BTC, benzylthiocyanate, reference compound] the “Body weights of animals fed experimental vs control diets” value ([1]; AOM or vehicle treated, in words) was “comparable”, the “Body wt, Initial (Wk 0)” value ([1]; AOM treated) was 40 ± 3 g and the “Body wt, wk 4” value ([1]; AOM treated) was 180 ± 10 g. For the same compound, the “Body wt, wk 8” value ([1]; AOM treated) was 281 ± 18 g, the “Body wt, wk 16” value ([1]; AOM treated) was 356 ± 21 g and the “Body wt, wk 22” value ([1]; AOM treated) was 394 ± 22 g. The “Body wt, wk 30” value ([1]; AOM treated) was 432 ± 24 g, the “Body wt, wk 37 (at termination)” value ([1]; AOM treated) was 459 ± 19 g and the “Body wt, Initial (Wk 0)” value ([1]; Vehicle treated) was 40 ± 3 g. For the same compound, the “Body wt, wk 4” value ([1]; Vehicle treated) was 182 ± 10 g, the “Body wt, wk 8” value ([1]; Vehicle treated) was 286 ± 18 g and the “Body wt, wk 16” value ([1]; Vehicle treated) was 362 ± 21 g. For the same compound, the “Body wt, wk 22” value ([1]; Vehicle treated) was 406 ± 22 g, the “Body wt, wk 30” value ([1]; Vehicle treated) was 449 ± 24 g and the “Body wt, wk 37 (at termination)” value ([1]; Vehicle treated) was 470 ± 24 g. For the same compound, the “Colon tumor incidence, Adenocarcinoma” value [2, 11] was 31 % of animals with tumors, the “Colon tumor incidence, Adenoma” value [2, 11] was 62 % of animals with tumors and the “Colon tumor incidence, Total (adenomas plus adenocarcinomas)” value [2, 11] was 69 % of animals with tumors. The “Number of animals with colon tumors, Adenocarcinoma” value [2, 12] was 8 number of animals, the “Number of animals with colon tumors, Adenoma” value [2, 12] was 16 number of animals and the “Number of animals with colon tumors, Total” value [2, 12] was 18 number of animals. The “Colon tumor multiplicity, Adenocarcinoma” value ([2]; 25 ppm in diet, Mean ± SD) was 0.35 ± 0.4 no. of tumors/animals, the “Colon tumor multiplicity, Adenoma” value ([2]; 25 ppm in diet, Mean ± SD) was 1.27 ± 1.3 no. of tumors/animals and the “Colon tumor multiplicity, Total” value ([2]; 25 ppm in diet, Mean ± SD) was 1.62 ± 1.3 no. of tumors/animals. For the same compound, the “Number of tumors per group, colon Adenocarcinoma” value ([2]; 25 ppm in diet, in parentheses) was 9 number of tumors per group, the “Incidence of total colon tumors (in words)” value ([2]; vs control diet) was “no differences in colon tumor incidences between the animals fed the control diet and BTC diet” and the “Small intestinal tumor incidence, Adenocarcinoma” value [3, 11] was 38 % of animals with tumors. The “Small intestinal tumor incidence, Adenoma” value [3, 11] was 12 % of animals with tumors, the “Small intestinal tumor incidence, Total” value [3, 11] was 38 % of animals with tumors and the “Number of animals with small intestinal tumors, Adenocarcinoma” value [3, 12] was 10 number of animals. For the same compound, the “Number of animals with small intestinal tumors, Adenoma” value [3, 12] was 3 number of animals, the “Number of animals with small intestinal tumors, Total” value [3, 12] was 10 number of animals and the “Small intestinal tumor multiplicity, Adenocarcinoma” value ([3]; 25 ppm in diet, Mean ± SD) was 0.34 0.6 no. of tumors/animal. For the same compound, the “Small intestinal tumor multiplicity, Adenoma” value ([3]; 25 ppm in diet, Mean ± SD) was 0.12 0.3 no. of tumors/animal, the “Small intestinal tumor multiplicity, Total” value ([3]; 25 ppm in diet, Mean ± SD) was 0.46 0.6 no. of tumors/animal and the “Number of animals with ear duct tumors” value ([4]; 27 (BSC) or 26 (BTC) animals/group) was 5 animals. The “% of animals with ear duct tumors” value ([4]; AOM treated) was 19 % of animals, the “No. of animals with metastasis” value ([5]; 25 ppm in diet, AOM treated) was 0 No. of animals and the “AOM-induced metastasis (in words)” value ([5]; several organs) was “none of the animals in BSC and BTC diet groups developed metastasis”. For the same compound, the “Selenium-dependent glutathione peroxidase activity, Kidney” value [6, 13] was 0.64 0.30 μmol NADPH oxidized/min/mg protein, the “Selenium-dependent glutathione peroxidase activity, Liver” value [6, 13] was 1.90 0.66 μmol NADPH oxidized/min/mg protein and the “Selenium-dependent glutathione peroxidase activity, Plasma” value [6, 13] was 0.69 0.16 μmol NADPH oxidized/min/mg protein. The “Selenium-dependent glutathione peroxidase activity, Colon” value ([6]; 25 ppm in diet 5 wk, colonic mucosa, Mean ± SE (n = 6)) was 0.23 0.06 μmol NADPH oxidized/min/mg protein, the “Selenium-dependent glutathione peroxidase activity, Small intestine” value ([6]; 25 ppm in diet 5 wk, small intestinal mucosa, Mean ± SE (n = 6)) was 0.20 0.10 μmol NADPH oxidized/min/mg protein and the “Selenium-dependent glutathione peroxidase activity (in words)” value ([6]; liver and plasma) was “not affected”. The “Non-selenium-dependent glutathione peroxidase activity (in words)” value [7] was “no differences in the activity of non-selenium-dependent glutathione peroxidase activity among the dietary groups”, the “Death after AOM treatment” value ([8]; 2 wk after AOM treatment) was “One” and the “Evidence of toxicity in animals fed the diet” value [8] was “no evidence of toxicity”. For the same compound, the “Inhibition of chemically induced carcinogenesis” value [9] was “inhibitor of carcinogenesis induced by chemicals in experimental animals”.

For `[Se]` [selenium], the “Reproductive and teratogenic effects” value ([10]; animals and humans) is listed as “Toxic reproductive and teratogenic effects” and the “Toxic chronic feeding level” value ([10]; chronic feeding, animals) is listed as 5 to 10 ppm.
